Data from the Deep4Chem optical property database.
Several values for one entry are separate records, joined by “and”; a condition that tells them apart may be missing. Equal values may be shown once.

Test: solvent given as SMILES

C(=C\c1cc2ccccc2c2ccccc12)/c1c2ccccc2cc2ccccc12
fluorescence lifetime (in C1CCOC1): 4.63 ns

CC1=C(c2ccccc2)C(C)=[N+]2C1=C(c1c(-c3ccccn3)nc3ccccn13)c1c(C)cc(C)n1[B-]2(F)F
fluorescence lifetime (in ClCCl): 6.2 ns

CC[n+]1nc2cc3c4c(c2c2cc(C)ccc21)CCCN4CCC3
fluorescence lifetime (in O): 4.2 ns

C[Si](C)(C)c1ccc(-c2ccc(-c3ccc(-c4ccc(-c5ccc([Si](C)(C)C)s5)s4)c4nsnc34)s2)s1
fluorescence lifetime (in C1CCOC1): 5.8 ns

CC(C)c1cccc(C(C)C)c1N1C(=O)c2cccc3c(Oc4ccc(Cl)cc4)ccc(c23)C1=O
fluorescence lifetime (in ClCCl): 3.95 ns

CC(C)c1cc(C(C)C)c(B2c3cc(-n4c5ccc(C(C)(C)C)cc5c5cc(C(C)(C)C)ccc54)ccc3N(c3ccccc3)c3ccc(-n4c5ccc(C(C)(C)C)cc5c5cc(C(C)(C)C)ccc54)cc32)c(C(C)C)c1
fluorescence lifetime (in c1cc(-c2cccc(-n3c4ccccc4c4ccccc43)c2)cc(-n2c3ccccc3c3ccccc32)c1): 15 ns

CCN(CC)c1ccc2c(-c3ccccc3C(=O)O)c3c([o+]c2c1)/C(=C/c1nc(C)n2ccccc12)CCC3
fluorescence lifetime (in ClCCl): 2.21 ns

c1ccc2c(c1)CCc1ccccc1N2c1c2ccccc2c(N2c3ccccc3CCc3ccccc32)c2ccccc12
fluorescence lifetime (in Cc1ccccc1): 34 ns

COc1ccc(-c2c3ccccc3c(C#Cc3ccccc3)c3ccccc23)cc1
fluorescence lifetime (in ClCCl): 2.8 ns

CCCCc1ccc2c(c1)c1ccc3cccc4c3c1c1c2c2cccc3ccc5c6cc(CCCC)ccc6c4c1c5c32
fluorescence lifetime (in ClCCl): 1.74 ns

c1cc2ccc3ccc4cc3c2cc1CCCCCCc1ccc2ccc3ccc-4cc3c2c1
fluorescence lifetime (in Cc1ccccc1): 8.7 ns

COc1cc(N(c2ccccc2)c2ccc(C=C(C#N)C#N)c(OC)c2)ccc1C=C(C#N)C#N
fluorescence lifetime (in C1COCCO1): 0.925 ns
fluorescence lifetime (in CC#N): 0.026 ns
fluorescence lifetime (in CC(C)=O): 0.049 ns
fluorescence lifetime (in CCOC(C)=O): 0.22 ns
fluorescence lifetime (in CN(C)C=O): 0.23 ns
fluorescence lifetime (in CO): 0.11 ns
fluorescence lifetime (in Cc1ccccc1): 0.051 ns
fluorescence lifetime (in ClC(Cl)Cl): 0.23 ns
fluorescence lifetime (in ClCCl): 0.15 ns

CN(C)c1ccc(-c2cc(-c3cccs3)nc(-c3ccccc3)n2)cc1
fluorescence lifetime (in ClC(Cl)Cl): 7 ns

CCN(CC)c1ccc(C=Cc2nc3nc4ccccc4nc3s2)cc1
fluorescence lifetime (in CCCCCCC(C)O): 0.991 ns
fluorescence lifetime (in CCOC(C)=O): 1.36 ns
fluorescence lifetime (in CO): 0.05 ns
fluorescence lifetime (in CS(C)=O): 0.42 ns
fluorescence lifetime (in Cc1ccccc1): 0.27 ns
fluorescence lifetime (in ClC(Cl)Cl): 1.31 ns
fluorescence lifetime (in ClCCl): 1.62 ns

Cc1cc(-c2ccc(-n3c4ccccc4c4ccccc43)cc2)nc(-c2ccc(-n3c4ccccc4c4ccccc43)cc2)n1
fluorescence lifetime (in C1CCOC1): 4.26 ns
fluorescence lifetime (in CN(C)C=O): 7.57 ns
fluorescence lifetime (in Cc1ccccc1): 2.44 ns
fluorescence lifetime (in ClC(Cl)Cl): 4.11 ns

c1cc(N2CCCC2)ccn1
fluorescence lifetime (in CC1CCCCC1): 11 ns

N#C/C(=C\c1ccc(C(F)(F)F)cc1)c1nc(-c2ccc(Cl)cc2)cs1
fluorescence lifetime (in CC#N): 1.2 ns

CN(C)c1ccc2nc(-c3ccc(C(=O)OC[C@H](NC(=O)OC(C)(C)C)C(=O)OCc4ccccc4)cc3)sc2c1
fluorescence lifetime (in C1CCCCC1): 2.4 ns

CCCCCCOc1cc(/C=C/c2cc(OCCCCCC)c(/C=C/c3cc(OCCCCCC)c(C=O)cc3OCCCCCC)cc2OCCCCCC)c(OCCCCCC)cc1C=O
fluorescence lifetime (in ClCCl): 1.77 ns

C(=C\c1ccc2ccccc2c1)/c1ccc(Nc2ccccc2)cc1
fluorescence lifetime (in CC#N): 0.43 ns
fluorescence lifetime (in CCCCCC): 0.34 ns

CCn1c2ccccc2c2cc(-c3cc(-c4ccc5c(c4)c4ccccc4n5CC)nc(-c4ccc(OC)cc4)n3)ccc21
fluorescence lifetime (in C1CCOC1): 1.63 ns

COc1cc(OC)cc(C2=[O+][B-](F)(F)OC(c3ccccc3)=C2)c1
fluorescence lifetime (in ClCCl): 6.87 ns

COc1c2ccccc2c(-c2ccccc2)c2ccccc12
fluorescence lifetime (in CC1CCCCC1): 2.48 ns
fluorescence lifetime (in CC#N): 1.38 ns
fluorescence lifetime (in CC(C)CC(C)(C)C): 2.38 ns
fluorescence lifetime (in CC(C)O): 2.94 ns
fluorescence lifetime (in CCCCCC): 1.52 ns
fluorescence lifetime (in CCCCO): 3.7 ns
fluorescence lifetime (in CCO): 2.9 ns
fluorescence lifetime (in CO): 2.04 ns
fluorescence lifetime (in OCC(O)CO): 7.53 ns

C=CC12N=N[C@](C=C)(C3C4CCC(C4)C31)C1[C@@H]3CC[C@@H](C3)[C@H]12 (stereo partly drawn)
fluorescence lifetime (in CC#N): 268 ns

Cn1ccc(=O)n(C)c1=O
fluorescence lifetime (in CC#N): 0.0001 ns

c1ccc(-c2cc(-c3ccc(-c4nc(-c5ccccn5)c(-c5ccccn5)[nH]4)cc3)cc(-c3ccccn3)n2)nc1
fluorescence lifetime (in C1CCOC1): 1.46 ns
fluorescence lifetime (in CC#N): 1.44 ns
fluorescence lifetime (in CC(C)=O): 1.09 ns
fluorescence lifetime (in CCCCCC): 0.065 ns
fluorescence lifetime (in CCO): 2.04 ns
fluorescence lifetime (in CCOC(C)=O): 1.18 ns
fluorescence lifetime (in CN(C)C=O): 1.91 ns
fluorescence lifetime (in CO): 1.41 ns
fluorescence lifetime (in CS(C)=O): 2.04 ns
fluorescence lifetime (in ClC(Cl)Cl): 1.19 ns
fluorescence lifetime (in ClCCl): 3.43 ns
fluorescence lifetime (in O): 2.39 ns

C#CCNC1=C2C=CC=[N+]2[B-](F)(F)n2cccc21
fluorescence lifetime (in C1CCCCC1): 6.36 ns and 5.34 ns
fluorescence lifetime (in CC(C)=O): 4.92 ns
fluorescence lifetime (in CCCCO): 6.02 ns
fluorescence lifetime (in CCCO): 5.16 ns
fluorescence lifetime (in CCO): 4.14 ns and 3.81 ns
fluorescence lifetime (in CCOC(C)=O): 5.13 ns
fluorescence lifetime (in CN(C)C=O): 2.98 ns
fluorescence lifetime (in CO): 3.22 ns
fluorescence lifetime (in CS(C)=O): 1.73 ns
fluorescence lifetime (in Cc1ccccc1): 6.56 ns
fluorescence lifetime (in ClC(Cl)Cl): 5.29 ns
fluorescence lifetime (in OCC(F)(F)F): 6.34 ns
fluorescence lifetime (in c1ccccc1): 6.28 ns

N#Cc1ccc(/C2=C3N=C(C(c4ccccc4)=C/3c3ccccc3)/C(c3ccc(C#N)cc3)=c3\[nH]/c(c(-c4ccccc4)c3-c3ccccc3)=C(/c3ccc(C#N)cc3)C3=N/C(=C(/c4ccc(C#N)cc4)c4[nH]c2c(-c2ccccc2)c4-c2ccccc2)C(c2ccccc2)=C3c2ccccc2)cc1
fluorescence lifetime (in ClCCl): 0.416 ns

CCN(CC)c1ccc2c(c1)oc(=O)c1cc3c(-c4ccccc4)nn(C)c3nc12
fluorescence lifetime (in ClCCl): 18.9 ns

Nc1ccc2c(c1)C(=O)c1ccc(N)cc1C2=O
fluorescence lifetime (in CC#N): 1.85 ns
fluorescence lifetime (in CC(C)O): 0.6 ns
fluorescence lifetime (in CCO): 0.47 ns
fluorescence lifetime (in CCOC(C)=O): 2.01 ns
fluorescence lifetime (in CO): 0.34 ns

COc1ccc(-c2oc3cccc4c5c(-c6ccc(OC)c(OC)c6)/c(=N/S(=O)(=O)C(F)(F)F)oc6cccc(c2c34)c65)cc1OC
fluorescence lifetime (in ClC(Cl)Cl): 4.4 ns

c1ccc(-c2nc(-c3ccccc3)nc(-c3ccc(-n4c5ccccc5c5c6c(ccc54)-c4ccccc4C6(c4ccccc4)c4ccccc4)cc3)n2)cc1
fluorescence lifetime (in O=P(c1ccccc1)(c1ccccc1)c1ccccc1Oc1ccccc1P(=O)(c1ccccc1)c1ccccc1): 3.3 ns

C(=C\c1nc2ccccc2s1)/c1ccccc1
fluorescence lifetime (in C1CCCCC1): 0.17 ns

Clc1nc(Nc2ccccc2)nc(Nc2ccc3cc4ccccc4cc3c2)n1
fluorescence lifetime (in C1COCCO1): 10.3 ns
fluorescence lifetime (in CCOC(C)=O): 6.6 ns

CC(C)(C)c1ccc2c(c1)c1cc(C(C)(C)C)ccc1n2-c1ccc(C#Cc2ccc3c4ccc(C#Cc5ccc(/C=C(/C#N)C(=O)O)cc5)cc4n(-c4ccc(C(F)(F)F)cc4)c3c2)cc1
fluorescence lifetime (in ClCCl): 1.27 ns

CN1CCN(c2ccc3c4c(cccc24)C(=O)c2ccccc2-3)CC1
fluorescence lifetime (in C1CCCCC1): 8.9 ns
fluorescence lifetime (in C1CCOC1): 10 ns
fluorescence lifetime (in C1COCCO1): 10.3 ns
fluorescence lifetime (in CC1COC(=O)O1): 8.04 ns
fluorescence lifetime (in CC#N): 9.53 ns
fluorescence lifetime (in CC(C)=O): 8.45 ns
fluorescence lifetime (in CCCCCCCCO): 5.99 ns
fluorescence lifetime (in CCCCCO): 5.38 ns
fluorescence lifetime (in CCCCO): 5.03 ns
fluorescence lifetime (in CCCO): 4.66 ns
fluorescence lifetime (in CCO): 3.77 ns
fluorescence lifetime (in CCOC(C)=O): 9.8 ns
fluorescence lifetime (in CN(C)C=O): 8.27 ns
fluorescence lifetime (in CO): 2.93 ns
fluorescence lifetime (in CS(C)=O): 8.5 ns
fluorescence lifetime (in Cc1ccccc1): 9.37 ns
fluorescence lifetime (in ClC(Cl)Cl): 10.4 ns

c1csc(-c2ccc(-c3ccc(-c4cccs4)s3)s2)c1
fluorescence lifetime (in CCC(C)C): 0.52 ns
fluorescence lifetime (in ClCCl): 0.44 ns

Nc1ccc2c(-c3ccc(C(=O)CN4C(=O)CCC4=O)cc3C(=O)[O-])c3ccc(=[NH2+])c(S(=O)(=O)[O-])c-3oc2c1S(=O)(=O)[O-]
fluorescence lifetime (in O): 4.1 ns

N#Cc1ccc(N(c2ccccc2)c2ccc3ccc4c(N(c5ccccc5)c5ccc(C#N)cc5)ccc5ccc2c3c54)cc1
fluorescence lifetime (in ClCCl): 2.7 ns

CCCCc1cc(-c2cccc(COC)c2)oc1-c1cccc(COC)c1
fluorescence lifetime (in ClC(Cl)Cl): 1.35 ns

C[Si]1(C)c2ccc(-c3ccc(N(c4ccccc4)c4ccccc4)cc3)cc2C=Cc2cc(-c3ccc(N(c4ccccc4)c4ccccc4)cc3)ccc21
fluorescence lifetime (in ClCCl): 5.9 ns

CCCN1/C(=C\c2c(-c3ccc(N(C)C)cc3)c(=O)c2=O)C=Cc2ccccc21
fluorescence lifetime (in C1CCCCC1): 1.01 ns
fluorescence lifetime (in Cc1ccccc1): 2.46 ns
fluorescence lifetime (in ClCCl): 0.09 ns

CCCCCCCCN1C(=O)c2ccc3c4c(-c5ccc(-n6c7ccccc7c7ccccc76)cc5)cc5c6c(cc(-c7ccc(-n8c9ccccc9c9ccccc98)cc7)c(c7ccc(c2c37)C1=O)c64)C(=O)N(CCCCCCCC)C5=O
fluorescence lifetime (in ClC(Cl)Cl): 3.3 ns

CC(C)(C)c1ccc2c(c1)c1cc(C(C)(C)C)ccc1n2-c1ccc(-n2c3ccc(C(C)(C)C)cc3c3cc(C(C)(C)C)ccc32)c(-c2nccnc2C#N)c1
fluorescence lifetime (in c1cc(-n2c3ccccc3c3ccccc32)cc(-n2c3ccccc3c3ccccc32)c1): 7.2 ns

CC1(C)OB(c2cc3ccc4cccc5ccc(c2)c3c45)OC1(C)C
fluorescence lifetime (in Cc1ccccc1): 82 ns

CC1(C)c2ccccc2N(c2ccccc2)c2ccc(-c3ccc(-c4ccc5c(c4)C(C)(C)c4ccccc4N5c4ccccc4)c4nsnc34)cc21
fluorescence lifetime (in c1ccc2c(c1)c1ccccc1n2-c1ccc(-c2ccc(-n3c4ccccc4c4ccccc43)cc2)cc1): 7.2 ns

COC(=O)/C(C#N)=c1\s/c(=c2/s/c(=C(/C#N)C(=O)OC)c3cc(-c4ccccc4)sc23)c2sc(-c3ccccc3)cc12
fluorescence lifetime (in Cc1ccccc1): 2.82 ns

N#Cc1ccc(-c2ccc3c(c2)c2cc(-c4ccc(C#N)cc4)ccc2c2c3nc(-c3ccc(-c4ccc(N(c5ccccc5)c5ccccc5)cc4)cc3)n2-c2ccccc2)cc1
fluorescence lifetime (in C1CCOC1): 1.51 ns
fluorescence lifetime (in CC#N): 2.86 ns
fluorescence lifetime (in CCCCCC): 1.04 ns
fluorescence lifetime (in CCOCC): 1.29 ns

c1ccc(-c2nc(-c3ccc(-c4ccc(-c5nc(-c6ccccc6)c(-c6ccccc6)o5)cc4)cc3)oc2-c2ccccc2)cc1
fluorescence lifetime (in C1COCCO1): 0.95 ns

COC(=O)c1ccc(-c2ccc3c(c2)C(=O)c2cc(-c4ccc(C(=O)OC)cc4)ccc2-3)cc1
fluorescence lifetime (in C1CCOC1): 2.3 ns

CN(C)c1c2ccccc2cc2ccccc12
fluorescence lifetime (in C1CCCCC1): 4.3 ns
fluorescence lifetime (in C1CCOC1): 5.3 ns
fluorescence lifetime (in C1COCCO1): 0.8 ns
fluorescence lifetime (in CC#N): 3.9 ns
fluorescence lifetime (in CCO): 5.1 ns
fluorescence lifetime (in CN(C)C=O): 6.5 ns
fluorescence lifetime (in CO): 4 ns
fluorescence lifetime (in COCCOC): 4.8 ns
fluorescence lifetime (in CS(C)=O): 8.2 ns
fluorescence lifetime (in O): 5.7 ns
fluorescence lifetime (in OCC(O)CO): 8.9 ns
fluorescence lifetime (in OCCO): 7 ns
